This is an account of results in ChEMBL document CHEMBL1137013, “Discovery of (2R)-2-(3-{3-[(4-Methoxyphenyl)carbonyl]-2-methyl-6-(trifluoromethoxy)-1H-indol-1-yl}phenoxy)butanoic acid (MK-0533): a novel selective peroxisome proliferator-activated receptor gamma modulator for the treatment of type 2 diabetes mellitus with a reduced potential to increase plasma …” (J Med Chem, 2009).

The source made the active and inactive calls. The calls are words filed in the database; no cut-off is given here. Bounds are passed on as bounds.

In general, IC50 refers to the concentration needed to halve the response being measured. The bioavailability is the share of a dose that reaches the circulation, judged against a reference dose that is usually intravenous. For orientation: clearance means the rate of elimination divided by the concentration. For orientation: Cmax means the maximum level reached in the sampled fluid or tissue. What is called EC50 is the concentration giving half of the maximal effect.

One series concerns Liver microsomes. As to the kind of experiment: Protein binding in human liver microsomes assessed per mg of protein. It counts as ADME, Microsome.
Series [1] concerns the target T1, Peroxisome proliferator-activated receptor alpha (Homo sapiens, UniProt Q07869).
T1 sequence (Q07869 whole entry): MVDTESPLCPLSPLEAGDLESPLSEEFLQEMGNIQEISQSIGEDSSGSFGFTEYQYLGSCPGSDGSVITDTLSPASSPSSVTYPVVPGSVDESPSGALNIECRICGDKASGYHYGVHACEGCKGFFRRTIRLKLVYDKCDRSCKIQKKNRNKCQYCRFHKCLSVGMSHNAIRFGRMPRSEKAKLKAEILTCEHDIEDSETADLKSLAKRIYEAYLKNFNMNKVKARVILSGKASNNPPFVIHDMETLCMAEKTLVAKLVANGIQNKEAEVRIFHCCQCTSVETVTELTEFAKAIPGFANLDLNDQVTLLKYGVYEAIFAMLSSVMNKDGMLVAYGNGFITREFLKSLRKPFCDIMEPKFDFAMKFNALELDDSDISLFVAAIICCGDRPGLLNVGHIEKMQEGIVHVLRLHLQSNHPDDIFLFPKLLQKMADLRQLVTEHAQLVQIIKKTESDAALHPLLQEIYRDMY
As to the kind of experiment: Displacement of [3H2]nTZD3 from human recombinant GST-fused PPARalpha expressed in Escherichia coli by scintillation proximity assay. A general note: Scintillation proximity formats need no separation of bound from free tracer.

Series [2] deals with T2, Peroxisome proliferator-activated receptor alpha (Homo sapiens) (UniProt Q07869).
T2 sequence (whole entry): T1 sequence (Q07869 whole entry)
As to the kind of experiment: Agonist activity at human recombinant PPARalpha expressed in COS1 cells coexpressing GAL4 assessed as transcriptional activity at 3000 nM after 48 hrs by luciferase reporter gene assay. It counts as functional, cell-based. As to conditions: COS-1.

Another series has as its system Cricetinae. As to the kind of experiment: Agonist activity at hamster PPARalpha at 3000 nM. Format: functional.
A short description of series [3]: Oral bioavailability in rat. Format: ADME, organism-based. Particulars: in vivo.
Series [4] can be described thus: Plasma clearance in rat. Format: ADME, organism-based.
Series [5] is described as follows: Cmax in rat. It counts as ADME, organism-based. Particulars: in vivo.
A short description of series [6]: Cmax in dog. Format: ADME, organism-based, Canis lupus familiaris. As to conditions: in vivo.
The nature of series [7]: Terminal half life in monkey. Particulars: rhesus monkey, in vivo; read-out: beta t1/2 (converted). Format: ADME, organism-based, Macaca mulatta.
The nature of series [8]: Cmax in monkey. It counts as ADME, organism-based, Macaca mulatta. As to conditions: rhesus monkey, in vivo.
A short description of series [9]: Volume of distribution at steady state in monkey. It counts as ADME, organism-based, Macaca mulatta. Particulars: rhesus monkey, in vivo; read-out: Vdss.
The test system of series [10] is Mus musculus. As to the kind of experiment: Antihyperglycemic activity in db/db mouse assessed as reduction in blood glucose level at 30 mg/kg, po administered once daily for 11 days. Format: functional. Details: scale not given: the % may be the effect or the level left.
Series [11] concerns Rattus norvegicus. Briefly: Toxicity in Sprague-Dawley rat assessed as heart weight at 300 mg/kg dosed daily for 2 weeks. Format: organism-based. Particulars: in vivo, 336 h. More on the design: dose 300 mg/kg.
In series [12] the test system is Rattus norvegicus. As to the kind of experiment: Toxicity in Sprague-Dawley rat assessed as liver weight at 300 mg/kg dosed daily for 2 weeks. It counts as organism-based. Details: dose 300 mg/kg. As to conditions: in vivo, 336 h.
In series [13] the test system is Rattus norvegicus. As to the kind of experiment: Antidiabetic activity in obese insulin-resistant Zucker fa/fa rat assessed as decrease in plasma insulin level at 3 to 150 mg/kg, po once daily for 7 days. Format: functional, organism-based.
Series [14] concerns Rattus norvegicus. Briefly: Antidiabetic activity in obese insulin-resistant Zucker fa/fa rat assessed as decrease in plasma free fatty acid level at 3 to 150 mg/kg, po once daily for 7 days. Format: functional, organism-based.
Series [15] can be described thus: AUC in obese insulin-resistant Zucker fa/fa rat at 100 mg/kg, po once daily for 7 days. It counts as ADME, organism-based. Details: dose 100 mg/kg, route oral. As to conditions: plasma.
Series [16] is described as follows: AUC in obese insulin-resistant Zucker fa/fa rat at 3 mg/kg, po once daily for 7 days. Format: ADME, organism-based. More on the design: dose 3 mg/kg, route oral. As to conditions: plasma.
Series [17] can be described thus: AUC in obese insulin-resistant Zucker fa/fa rat at 150 mg/kg, po once daily for 7 days. Particulars: plasma. Details: dose 150 mg/kg, route oral. Format: ADME, organism-based.
Series [18] relates to Rattus norvegicus. Briefly: Toxicity in obese insulin-resistant Zucker fa/fa rat assessed as increase in plasma volume at 100 mg/kg, po once daily for 7 days by Evans blue dye dilution technique. As to conditions: in vivo, 168 h.
In series [19] the test system is Rattus norvegicus. Briefly: Toxicity in obese insulin-resistant Zucker fa/fa rat assessed as increase in heart weight volume at 3 to 150 mg/kg, po once daily for 7 days. It counts as organism-based. Details: dose 3-150 mg/kg, route oral. Particulars: in vivo, 168 h.
Series [20] can be described thus: Inhibition of CYP450. Format: ADME.
In series [21] the test system is Mus musculus. As to the kind of experiment: Antihyperglycemic activity in db/db mouse assessed as plasma adiponectin level at 30 mg/kg, po administered once daily for 11 days by RIA. It counts as functional.
For series [22], the target named is T3, Peroxisome proliferator-activated receptor gamma (Homo sapiens, UniProt P37231).
T3 sequence (P37231 whole entry): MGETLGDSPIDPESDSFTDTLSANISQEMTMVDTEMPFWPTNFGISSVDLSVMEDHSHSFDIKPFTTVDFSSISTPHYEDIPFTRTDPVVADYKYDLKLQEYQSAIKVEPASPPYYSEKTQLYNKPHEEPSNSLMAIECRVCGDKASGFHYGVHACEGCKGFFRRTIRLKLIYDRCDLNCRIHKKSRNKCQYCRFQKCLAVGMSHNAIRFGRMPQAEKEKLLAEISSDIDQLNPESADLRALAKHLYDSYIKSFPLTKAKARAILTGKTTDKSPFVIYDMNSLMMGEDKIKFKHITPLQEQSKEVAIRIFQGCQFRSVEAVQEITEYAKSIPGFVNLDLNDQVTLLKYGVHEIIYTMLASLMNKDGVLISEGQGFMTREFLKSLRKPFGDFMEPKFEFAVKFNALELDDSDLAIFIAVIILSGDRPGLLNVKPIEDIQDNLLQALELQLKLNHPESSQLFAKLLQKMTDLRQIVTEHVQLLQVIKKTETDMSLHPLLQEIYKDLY
Description: Agonist activity at human recombinant PPARgamma expressed in COS1 cells co-expressing GAL4 assessed as transcriptional activity after 48 hrs by luciferase reporter gene assay

Regarding `CC[C@@H](Oc1cccc(-n2c(C)c(C(=O)c3ccc(OC)cc3)c3ccc(OC(F)(F)F)cc32)c1)C(=O)O` [MK-0533], the PB in the series on Liver microsomes was less than 10 pmol. In addition, the IC50 in series [1] was more than 50 µM. Besides, the Activity in series [2] is 33%; in the series on Cricetinae, 52%; with Mus musculus [10] it was 83%; in the series with Rattus norvegicus [11], 1.1 g; with Rattus norvegicus [12], 19.7 g; with Rattus norvegicus [18], “Toxic”. Further, the Activity entry is “Non-toxic” with Rattus norvegicus [19] and 48.1 µg/mL with Mus musculus [21]. For the same molecule, in [3], the bioavailability is 81%. In series [4], this molecule yielded a clearance of 18.3 mL/min/kg. For the same molecule, the Cmax in series [5] is 1000 nM; in series [6], 2400 nM; in series [8] it was 500 nM. Also, in series [7], the half-life was 192 min. Moreover, in series [9], the Vd was found to be 0.7 L/kg. The result in the series on Rattus norvegicus [13] and in the series with Rattus norvegicus [14] was Active. For the same molecule, the AUC at 168 h turned out to be 1480 µM·h in [15], 6 µM·h in series [16] and 4520 µM·h in series [17]. The same molecule displayed an INH in series [20] of more than 10 µM. The molecule further gave an EC50 in [22] of 2 nM.
